Data reported in patent US20090209474A1, “NOVEL USES FOR DRUGS TARGETING GLUTAMINE SYNTHETASE” (NEWTHERA, priority 2005, published 2009).
pKi: −log10 of the molar value. Like-named read-outs stand apart in the source and are kept apart here. Residues, ends and D or L forms follow the SMILES beside them.

Experiments:
GS (sheep brain) = details: cited from earlier work
purified sheep brain GS = assay: Purified sheep brain GS activity (Meister's method, gamma-glutamylhydroxamate formation); type: biochemical
GS (rat liver) = GS (rat liver) (Rattus norvegicus, UniProt P09606); details: cited from earlier work
GS (rat liver), sequence (P09606 2-373 limits assumed): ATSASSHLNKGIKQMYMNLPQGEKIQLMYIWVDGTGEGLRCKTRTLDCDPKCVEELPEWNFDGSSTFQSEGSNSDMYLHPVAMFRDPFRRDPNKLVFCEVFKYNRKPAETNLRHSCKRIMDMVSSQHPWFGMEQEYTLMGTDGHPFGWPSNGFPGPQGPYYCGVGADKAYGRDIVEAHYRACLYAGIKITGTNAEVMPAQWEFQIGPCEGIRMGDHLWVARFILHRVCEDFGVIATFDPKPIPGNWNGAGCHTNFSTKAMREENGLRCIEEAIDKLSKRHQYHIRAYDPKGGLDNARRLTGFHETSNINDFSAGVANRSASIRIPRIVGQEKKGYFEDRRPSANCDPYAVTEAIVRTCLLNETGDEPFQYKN

[1] = test system: glutamate metabotropic receptor; details: cited from earlier work
GS [2] = details: cited from earlier work
GS [3] = target: GS (Rattus norvegicus, UniProt P09606); type: in vivo, Wistar rats; design: Wistar rat brain homogenates were incubated with naftazone; from tissue; host or cells: Wistar rat brain homogenate or membranes; in A19 also liver and lungs; details: one hour after PTZ 50 mg/kg i.p.
GS (Rattus norvegicus, UniProt P09606), sequence (P09606 2-373 limits assumed): as above

Wistar rat brain GS = target: T1, Wistar rat brain GS (Rattus norvegicus, UniProt P09606); assay: GS activity in Wistar rat brain homogenates; type: biochemical; details: in absence of 2β-ME
T1 construct: from tissue; host or cells: Wistar rat brain homogenate or membranes; in A19 also liver and lungs
T1 sequence (P09606 2-373 limits assumed): as above
Description: GS activity was assessed as mentioned above for purified sheep brain GS.

Wistar rats [4] = assay: Open field task in corticosterone-administered rats; type: in vivo; details: day 15, corticosterone 35 mg/kg s.c.; versus PCB and Control
Wistar rats [5] = assay: Forced swimming test in corticosterone-administered rats; type: in vivo
[6] = Adrenal weight in corticosterone-administered rats; type: in vivo, Wistar rats
Wistar rats [7] = assay: PTZ-induced seizures; type: in vivo; details: rat, in vivo

**Q.** With `CP(=O)(O)C(O)CC(N)C(=O)O` (stereo not shown) [Gamma-hydroxy phosphinothricin] as the compound, how does the pKi (GS (sheep brain)) read?
**A.** Its pKi is 4.33.

**Q.** Which “tested on GS activity: ligand or not” value (purified sheep brain GS) does the source give for `NNC(=O)c1ccncc1` [isoniazid, Isoniazid] here?
**A.** The value was “GS ligands”.

**Q.** With `CP(=O)(O)C(N)CCC(=O)O` (stereo not shown) [4-Amino-4-(hydroxymethylphosphinyl) butanoic acid] as the compound, how does the pKi (GS (rat liver)) read?
**A.** Its pKi is 3.10.

**Q.** Which “activity at glutamate metabotropic receptors in words” value (from here on “activity … in words”) [1] does the source give for `CC(=O)N[C@@H](CC(=O)O)C(=O)N[C@@H](CCC(=O)O)C(=O)O` [N-Acetyl-L-aspartyl-L-glutamic acid] (Ac-Asp-Glu-OH) here?
**A.** The value was “Highly selective mGlu3 glutamate metabotropic receptor agonist Morris et al., 1965”.

**Q.** For `CS(=O)(=O)CC[C@H](N)C(=O)O` [Methionine sulfone], which “GS inhibition in words” value (GS [2]) is on record?
**A.** The value was “Very potent ATP-dependent inhibitor of GS activity in a number of species. First discovered in nitrogen chloride treated zein. Eisenberg et al., 2000”.

**Q.** With `NC(C(=O)O)c1cccc(O)c1` (racemic) [(RS)-3-Hydroxyphenylglycine] as the compound, how does the “activity … in words” value [1] read?
**A.** The value was “Glutamate metabotropic receptor agonist Thomsen and Suzdak, 1993”.

**Q.** Which “activity … in words” value [1] does the source give for `Cc1ccc(O)c(/N=N/c2ccccc2)n1` [6-Methyl-2-(phenylazo)-3-pyridinol] here?
**A.** The value was “Selective mGlu5 glutamate metabotropic receptor antagonist Varney et al., 1999”.

**Q.** For `N[C@@H](C[C@H](CCCC(c1ccccc1)c1ccccc1)C(=O)O)C(=O)O` [(4S)-4-(4,4-Diphenylbutyl)-L-glutamic acid], which “activity … in words” value [1] is on record?
**A.** The value was “Selective and competitive mGlu2 glutamate metabotropic receptor antagonist Wermuth et al., 1996”.

**Q.** With `CC1(/C=C/c2ccccc2)C=CC=CN1` (stereo not shown) [2-Methyl-2-(phenylethenyl)pyridine] as the compound, how does the “activity … in words” value [1] read?
**A.** The value was “Selective mGlu5 glutamate metabotropic receptor antagonist Varney et al., 1999”.

**Q.** For “(2S,3S,4S)-2-Methyl-2-(carboxycyclopropyl)glycine”, which “activity … in words” value [1] is on record?
**A.** Its value is “mGlu2 glutamate metabotropic receptor antagonist Jane et al., 1994”.

**Q.** Which “GS activity in the cortex, hippocampus and thalamus” value (GS [3]) does the source give for `C1CCc2nnnn2CC1` [PTZ, pentylenetetrazole] here?
**A.** The value was “low”.

**Q.** For `N[C@H](C(=O)O)c1cc(=O)[nH]o1` [Ibotenic acid], which “activity … in words” value [1] is on record?
**A.** The value was “Glutamate metabotropic receptor agonist Johnston, 1968”.

**Q.** With `NC1(C(=O)O)CCCC(P(=O)(O)O)C1` (stereo not shown) [Cyclohexane phosphinothricin, 1-Amino-3-phosphono-cyclohexane-carboxylic acid] as the compound, how does the pKi (GS (sheep brain)) read?
**A.** The pKi was 3.90.

**Q.** For `N[C@@H](CC[S+]([O-])CP(=O)(O)O)C(=O)O` (stereo partly shown) [s-Phosphonomethyl homocysteine sulfoxide], which “GS inhibition in words” value (GS [2]) is on record?
**A.** The value was “Synthetic inhibitor Logusch et al., 1988 Eisenberg et at., 2000”.

**Q.** With `CCC(N)(CCP(C)(=O)O)C(=O)O` (stereo not drawn) [Alpha-ethyl phosphinothricin] as the compound, how does the pKi (GS (sheep brain)) read?
**A.** Its pKi is 3.95.

**Q.** For `N[C@H](C(=O)O)[C@@H]1[C@@H](C(=O)O)C1(F)F` [(2S,1′S,2′S)-2-(2′-Carboxy-3′,3′-difluorocyclopropyl)glycine], which “activity … in words” value [1] is on record?
**A.** The value was “Glutamate metabotropic receptor agonist Shinozaki et al., 1996”.

**Q.** With `CC(N)(CCP(C)(=O)O)C(=O)O` (stereo not drawn) [Alpha-methyl phosphinothricin] as the compound, how does the pKi (GS (sheep brain)) read?
**A.** The pKi was 3.90.

**Q.** With `CC(CC(N)C(=O)O)P(C)(=O)O` (stereo not shown) [Gamma methyl phosphinothricin] as the compound, how does the pKi (GS (sheep brain)) read?
**A.** The pKi was 3.39.

**Q.** For `Cc1cc(C(=O)O)ccc1[C@H](N)C(=O)O` [(S)-(+)-Amino-4-carboxy-2-methylbenzeneacetic acid], which “activity … in words” value [1] is on record?
**A.** The value was “Selective mGlu1a glutamate metabotropic receptor antagonist Clarke et al., 1997”.

**Q.** With `CC(N)(CCP(=O)(O)O)C(=O)O` (stereo not shown) [2-Amino-2-methyl-4-phosphono butanoic acid] as the compound, how does the pKi (GS (rat liver)) read?
**A.** The pKi was 2.20.

**Q.** With `O=C(O)[C@@H]1C[C@@H](C(=O)O)N1` (relative stereo) [Trans-Azetidine-2,4-dicarboxylic acid] as the compound, how does the “activity … in words” value [1] read?
**A.** Its value is “Group I selective glutamate metabotropic receptor agonist. (activates mGlu1 and mGlu5) Kozikowski et al., 1993”.

**Q.** With `N[C@@]1(C(=O)O)CC[C@H](C(=O)O)C1` [1-Aminocyclopentane-cis-1,3-dicarboxylic acid] as the compound, how does the “activity … in words” value [1] read?
**A.** Its value is “Group I/II glutamate metabotropic receptor agonist Olverman et al., 1983”.

**Q.** Which “activity … in words” value [1] does the source give for `N[C@@H](CSS(=O)(=O)[O-])C(=O)O.[Na+]` [S-Sulfo-L-cysteine sodium salt] here?
**A.** Its value is “mGlu1a and mGlu5a glutamate metabotropic receptor agonist Mewett et al., 1983”.

**Q.** With `N[C@@H](CCS(=O)(=O)CP(=O)(O)O)C(=O)O` [s-Phosphonomethyl homocysteine sulfone] as the compound, how does the pKi (GS [2]) read?
**A.** The pKi was 2.85.

**Q.** With `CC(N)(CCC(=O)O)[PH](=O)CO` (stereo not shown) [4-Amino-4-(hydroxymethylphosphinyl)-4-methyl butanoic acid] as the compound, how does the pKi (GS (rat liver); read-out: Ki) read?
**A.** Its pKi is 2.02.

**Q.** With `COC(=O)C(CCP(=O)(O)O)C(=O)O` (stereo not shown) [2-Methoxycarbonyl-4-phosphono butanoic acid] as the compound, how does the pKi (GS (rat liver)) read?
**A.** Its pKi is 2.06.

**Q.** Which “activity … in words” value [1] does the source give for `N[C@](CC1c2ccccc2Oc2ccccc21)(C(=O)O)[C@H]1C[C@@H]1C(=O)O` [(2S)-2-Amino-2-[(1S,2S)-2-carboxycycloprop-1-yl]-3-(xanth-9-yl) propanoic acid] here?
**A.** Its value is “Highly potent mGlu2 glutamate metabotropic receptor antagonist Ornstein et al., 1998”.

**Q.** For `[Sr+2]` [strontium], which “maximum decrease of GS activity” value (Wistar rat brain GS; at 10^−10 M) is on record?
**A.** Its value is 75%.

**Q.** With `NC(CCC(=O)O)P(=O)(O)O` (stereo not shown) [4-Amino-4-phosphono butanoic acid] as the compound, how does the pKi (GS (rat liver)) read?
**A.** The pKi was 2.89.

**Q.** For `CN1c2ccccc2C(NCCCCCCC(=O)O)c2ccc(Cl)cc2S1(=O)=O` (stereo not shown) [tianeptine, 7-[(3-chloro-6,11-dihydro-6-methyl-dibenzo[c,f][1,2]thiazepin-11-yl)amino] heptanoic acid S,S-dioxide], which “resting time in the open field task” value (Wistar rats [4]) is on record?
**A.** The value was “higher”.

**Q.** And the “immobility in the forced swimming test” value (Wistar rats [5]; GF 0.1 mg/kg, tianeptine 0.5 mg/kg)?
**A.** The value was “clear decrease in immobility”.

**Q.** What about the “immobility in the forced swimming test” value (Wistar rats [5]; day 19, corticosterone 35 mg/kg s.c., versus PCB and Control) of the same compound?
**A.** Its value is “comparable or lower”.

**Q.** What about the adrenal weight ([6]; 21 days, versus PCB) of the same compound?
**A.** Its adrenal weight is “higher”.

**Q.** What about the “dose of maximum effect on seizures” value (Wistar rats [7]) of the same compound?
**A.** The value was 10 mg/kg.

**Q.** What about the “dose relation of the effect on seizures” value (Wistar rats [7]) of the same compound?
**A.** The value was “U-shaped”.

**Q.** For `N[C@]1(C(=O)O)CCc2cc(C(=O)O)ccc21` (racemic) [(RS)-1-Aminoindan-1,5-dicarboxylic acid], which “activity … in words” value [1] is on record?
**A.** The value was “mGlu1 glutamate metabotropic receptor antagonist Pellicciari et al.,1995”.

**Q.** With `NC(CCP(=O)(O)O)C(=O)O` (stereo not shown) [2-Amino-4-phosphono butanoic acid] as the compound, how does the pKi (GS (rat liver)) read?
**A.** Its pKi is 3.06.

**Q.** With `[Li]` [lithium, Li2CO3] as the compound, how does the “maximum decrease of GS activity” value (Wistar rat brain GS; at 0.01 M) read?
**A.** The value was 40%.

**Q.** Which “GS inhibition in words” value (GS [2]) does the source give for `C[C@@](N)(CCS(C)(=N)=O)C(=O)O` (stereo partly drawn) [Alpha-methyl methionine sulfoximine] here?
**A.** The value was “Slightly less inhibitory synthetic MS derivative Eisenberg et al., 2000”.

**Q.** Which “activity … in words” value [1] does the source give for `C[C@@](N)(CCP(=O)(O)O)C(=O)O` [2-Amino-2-methyl-4-phosphono-butyric acid] here?
**A.** Its value is “Selective mGlu3 glutamate metabotropic receptor antagonist Sekiyama et al., 1996”.

**Q.** For `C[C@]12C[C@H](O)[C@H]3[C@@H](CCC4=CC(=O)CC[C@@]43C)[C@@H]1CC[C@@H]2C(=O)CO` [corticosterone], which adrenal weight ([6]; repeated administration of corticosterone) is on record?
**A.** Its adrenal weight is “decreased the adrenal weight”.

**Q.** Which “activity … in words” value [1] does the source give for `NC(C(=O)O)c1cc(O)cc(O)c1` (racemic) [(RS)-3,5-Dihydroxyphenylglycine] here?
**A.** The value was “Group I selective glutamate metabotropic receptor agonist (activates mGlu1 and mGlu5) Schoepp et al., 1994”.

**Q.** With `COC(=O)CCC(N)P(=O)(O)O` (stereo not shown) [Methyl 4-amino-4-phosphono butanate] as the compound, how does the pKi (GS (rat liver)) read?
**A.** Its pKi is 2.68.
